# Reference: US4871774A, “Medical treatment” (The Boots Company PLC, priority 1987, dated 1989)
# Several values for one entry are separate records, joined by “and”; a condition that tells them apart may be missing. Equal values may be shown once. Read-outs that look alike come from different tables or passages of the source.
# Tests used:
# [1] = system: uptake of dopamine into striatal synaptosomes; assay: In vitro inhibition of dopamine uptake (14C-dopamine, rat striatal synaptosomes); type: biochemical, rat (Sprague-Dawley); details: for IC50: 0.17 μM 14C-dopamine
# Description: (1) In vitro inhibition of dopamine uptake
# Male Sprague-Dawley rats (Charles River) were killed by cervical dislocation and the brains removed and placed in an ice-cold oxygenated Krebs solution containing 120 mM NaCl, 4.7 mM KCl, 2.1 mM KH2 PO4, 1.2 mM CaCl2, 0.6 mM MgSO4, 25 mM NaHCO3 and 11 mM glucose. The brains were then dissected according to the method of Glowinski and Iversen [J. Neurochem. (1966) 13 655-669] and the striata removed. The samples of striata were pooled, weighed and transferred to a glass homogenising vessel on ice, containing oxygenated 0.32M sucrose solution (20 volumes). […] The homogenate was centrifuged at 1000×g for 10 minutes at 4° C. and the supernatant containing a suspension of synaptosomes was used in the dopamine uptake inhibition tests described below. […] A solution of ^14 C-dopamine hydrochloride (Amersham International) was added (0.2 ml) to give a final concentration of 0.17 μM. The incubation was continued for a further 5 minutes before the contents of the tubes were filtered under vacuum through Whatman GF/F filters which were washed with ice-cold Krebs solution (2×5 ml). The filters were placed in scintillation vials containing 10 ml scintillation fluid (ES-299 supplied by Packard Instruments) and the radioactivity in the vials counted on a Packard 4530 scintillation counter. In each experiment there was a control tube in which no test compound was present, 3 tubes in which the compound being tested was present at one of three concentrations (100, 10 and 1 μM) and a background tube containing no test compound which was maintained at 0° C. to determine passive ^14 C-dopamine uptake. The count for each tube was registered in counts per minute (cpm) and the % inhibition of uptake (I) calculated from the formula [formula] […] The concentration which gave 50% inhibition of uptake was then calculated and is given below as the IC50 figure for each experiment.
# [2] = system: dopamine reuptake; depletion of brain dopamine; assay: In vivo inhibition of dopamine reuptake (prevention of α-methyl-m-tyrosine-induced depletion of brain dopamine); set-up: species or system rat (Sprague-Dawley); details: oral, three doses
# Source text: An in vivo test for dopamine reuptake inhibition relies on the fact that such reuptake inhibitors can prevent the entry of dopamine-depleting agents into neurons. Depleting agents interfere with the neuronal storage mechanism for dopamine so dopamine leaks into the cytoplasm where it is metabolised by monoamine oxidase. Depleting agents therefore induce a large reduction in brain dopamine levels which can be measured experimentally. Prior treatment with a dopamine reuptake inhibitor reduces the depletion of dopamine levels caused by subsequent administration of a depleting agent such as α-methyl-m-tyrosine.
# Male Sprague-Dawley rats (180-220 g: Charles River) were randomly assigned to various treatment groups. […] Thirty minutes later, one vehicle treated group and all the test groups were given an i.p. injection (2 ml/kg) of the depleting agent α-methyl-m-tyrosine (25 mg/kg; Sigma Chemical Co.). […]
# Brain samples were thawed and homogenised in 4 volumes of 0.4M perchloric acid containing sodium metabisulphite (0.4 mM) and the internal standard 3,4-dihydroxybenzylamine (0.8 μM). […] Supernatants were removed and their dopamine concentration determined using an HPLC (high pressure liquid chromatography) system with fluorimetric detection.
# The percentage prevention (P) of depletion of brain dopamine levels by test compounds is calculated from the formula [formula] […]
# [3] = system: uptake of dopamine into synaptosomes from rat striata; assay: Inhibition of dopamine uptake in vitro by plasma from drug treated rats obtained over a period of time after a single 30 mg/kg dose; type: biochemical; details: for % Inhibition of dopamine uptake - Mean (± SEM): 30 mg/kg oral
# Description: (4) Inhibition of dopamine uptake in vitro by plasma from drug treated rats obtained over a period of time after a single 30 mg/kg dose
# The percentage inhibition of dopamine uptake was determined in a similar manner to that described in (3) above. […]
# [4] = system: uptake of radiolabelled dopamine into freshly prepared synaptosomes from rat striatum; assay: Inhibition of dopamine uptake in vitro by plasma from humans treated with drug (14C-dopamine, rat striatal synaptosomes); type: biochemical; details: plasma 3 h after 50 mg oral; for % Inhibition of dopamine uptake: hydrochloride monohydrate
# Description: (5) Inhibition of dopamine uptake in vitro by plasma from humans treated with drug
# The plasma was separated by centrifugation at 2900×g for 20 minutes at room temperature in a Heraeus Christ minicentrifuge and was stored at -20° C. prior to analysis. The samples were thawed in a water bath at 37° C. for 10-15 minutes prior to commencement of the in vitro dopamine uptake assay which was performed as described in (3) above except ^14 C-dopamine was used. The assay was performed twice on plasma from each volunteer.
# plasma dopamine level = assay: Dopamine level in the plasma of human subjects; type: in vivo; details: for Dopamine levels: human plasma, 2 h after administration
# Source text: The mean value of domamine in picograms/ml is set out below at days 1, 4 and 7. Eight human subjects who were given placebo tablets provides plasma samples from which the mean control dopamine levels given below were obtained.
smiles,measurement,setting,value
"CC(C)CC(N(C)C)C1(c2ccc(Cl)cc2)CCC1.Cl.O (centres unmarked) [N,N-dimethyl-1-[1-(4-chlorophenyl)cyclobutyl]-3-methylbutylamine hydrochloride monohydrate]",% Inhibition of uptake,"[1]; 1 μM, Ex.1",31%
same,% Inhibition of uptake,"[1]; 1 μM, Ex.2",4%
same,% Inhibition of uptake,"[1]; 1 μM, Ex.3",12%
same,% Inhibition of uptake,"[1]; 10 μM, Ex.1",70%
same,% Inhibition of uptake,"[1]; 10 μM, Ex.2",35%
same,% Inhibition of uptake,"[1]; 10 μM, Ex.3",48%
same,% Inhibition of uptake,"[1]; 100 μM, Ex.1",96%
same,% Inhibition of uptake,"[1]; 100 μM, Ex.2",81%
same,% Inhibition of uptake,"[1]; 100 μM, Ex.3",86%
same,inhibition of 14C-dopamine uptake (in words),"[1]; 100, 10 and 1 μM",inhibited ^14 C-dopamine uptake in a concentration-dependent manner
same,IC50,"[1]; Ex.1, 37° C., read-out: IC50",3.3 µM
same,IC50,"[1]; Ex.2, 37° C., read-out: IC50",18 µM
same,IC50,"[1]; Ex.3, 37° C., read-out: IC50",11 µM
same,IC50,"[1]; mean of three replicate experiments, read-out: mean (±SEM) IC50 value for inhibition of dopamine uptake",11 ± 4.2 µM
same,prevention of brain dopamine depletion (in words),[2],dose-dependent prevention of brain dopamine depletion
same,% Inhibition of dopamine uptake - Mean (± SEM),[3]; 1 hr after dosing,45.0 ± 4.1%
same,% Inhibition of dopamine uptake - Mean (± SEM),[3]; 3 hrs after dosing,63.0 ± 1.7%
same,% Inhibition of dopamine uptake - Mean (± SEM),[3]; 8 hrs after dosing,73.4 ± 3.5%
same,% Inhibition of dopamine uptake - Mean (± SEM),[3]; 24 hrs after dosing,31.5 ± 2.4%
same,% Inhibition of dopamine uptake - Mean (± SEM),[3]; 48 hrs after dosing,19.5 ± 5.2%
same,% Inhibition of dopamine uptake - Mean (± SEM),[3]; 72 hrs after dosing,10.4 ± 1.6%
same,persistence of inhibition of dopamine uptake by rat plasma (in words),[3]; single 30 mg/kg oral dose,persists for a considerable period of time after dosing
same,"% Inhibition of dopamine uptake, Mean","[4]; Volunteer 1, mean of two assays",11.6%
same,"% Inhibition of dopamine uptake, Mean","[4]; Volunteer 2, mean of two assays",8.6%
same,"% Inhibition of dopamine uptake, Mean","[4]; Volunteer 3, mean of two assays",15.7%
same,% Inhibition of dopamine uptake,"[4]; Volunteer 3, single assays (performed twice)",13.4% and 17.9%
same,"% Inhibition of dopamine uptake, Mean","[4]; Volunteer 4, mean of two assays",17.9%
same,"% Inhibition of dopamine uptake, Mean","[4]; Volunteer 5, mean of two assays",15.7%
same,% Inhibition of dopamine uptake,"[4]; Volunteer 5, single assays (performed twice)",13.0% and 18.4%
same,"% Inhibition of dopamine uptake, Mean","[4]; Volunteer 6, mean of two assays",16.1%
same,mean (±SEM) % inhibition of 14C-dopamine uptake by plasma from the six drug-treated volunteers,[4]; mean of six volunteers,14.2±1.4%
same,Dopamine levels,"plasma dopamine level; Day 1, 30 mg per day, control 122",254 pg/mL
same,Dopamine levels,"plasma dopamine level; Day 4, 30 mg per day, control 110",294 pg/mL
same,Dopamine levels,"plasma dopamine level; Day 7, 30 mg per day, control 118",219 pg/mL
same,plasma dopamine levels (in words),"plasma dopamine level; human subjects, 30 mg dose",plasma dopamine levels had increased
